Results on 10 molecules are retold here after ChEMBL document CHEMBL1201862, “PubChem BioAssay data set” (2004).

Active and inactive are the calls of the source.

One series has as its system HT-1080. Kind of series: HT1080 cell viability loss – fluorescence readout (AID 620). It counts as functional, cell-based. To be noted: Homo sapiens.
Series [1] deals with Luciferin 4-monooxygenase (Photinus pyralis, UniProt P08659). Nature of the series: Counter Screen for Luciferase-based Assay Positives. [Related pubchem assays: 620, 618, 411 ]. (A counterscreen serves to expose hits that act by an unwanted route or on another target.)
Sequence of Luciferin 4-monooxygenase (P08659 whole entry): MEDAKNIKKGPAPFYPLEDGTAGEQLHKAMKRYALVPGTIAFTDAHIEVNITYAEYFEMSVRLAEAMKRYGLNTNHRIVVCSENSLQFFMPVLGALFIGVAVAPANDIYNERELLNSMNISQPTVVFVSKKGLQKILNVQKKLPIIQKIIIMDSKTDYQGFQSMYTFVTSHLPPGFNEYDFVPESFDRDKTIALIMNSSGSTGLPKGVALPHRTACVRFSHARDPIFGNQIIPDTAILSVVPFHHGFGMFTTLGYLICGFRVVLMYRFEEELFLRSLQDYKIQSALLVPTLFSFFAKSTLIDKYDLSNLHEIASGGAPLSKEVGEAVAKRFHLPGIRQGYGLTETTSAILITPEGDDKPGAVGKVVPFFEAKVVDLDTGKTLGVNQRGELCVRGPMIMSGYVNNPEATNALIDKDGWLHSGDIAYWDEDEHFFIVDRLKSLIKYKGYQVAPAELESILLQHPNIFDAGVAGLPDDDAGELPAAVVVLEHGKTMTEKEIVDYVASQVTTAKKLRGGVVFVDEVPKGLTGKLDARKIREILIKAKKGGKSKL
Series [2] concerns the target T1, Lytic switch protein BZLF1 (Epstein-Barr virus (strain B95-8) (HHV-4) (Human herpesvirus 4), UniProt P03206).
T1 sequence (P03206 whole entry): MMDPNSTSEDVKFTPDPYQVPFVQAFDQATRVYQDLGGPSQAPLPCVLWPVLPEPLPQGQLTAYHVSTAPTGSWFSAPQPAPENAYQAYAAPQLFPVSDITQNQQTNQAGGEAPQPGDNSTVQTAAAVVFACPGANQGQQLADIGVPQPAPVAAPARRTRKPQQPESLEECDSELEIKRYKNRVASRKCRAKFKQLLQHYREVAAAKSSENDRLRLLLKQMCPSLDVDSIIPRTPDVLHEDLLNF
Nature of the series: inhibition of BZLF1 ZTA DNA binding – biochemical, fluorescence polarization, Epstein-Barr virus, 1536-well, counter-screen for EBNA-1 inhibitor project, dose response (AID 2377).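 Note: fluorescence polarization of Cy5-labelled ZRE DNA probe bound by purified Zta.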 On the set-up: species or system human gammaherpesvirus 4. (In general: Fluorescence polarisation rises when a labelled molecule tumbles more slowly, as on binding a larger partner.)

For series [3], the target named is T2, Epstein-Barr nuclear antigen 1 (Epstein-Barr virus (strain B95-8) (HHV-4) (Human herpesvirus 4), UniProt P03211).
T2 sequence (P03211 whole entry): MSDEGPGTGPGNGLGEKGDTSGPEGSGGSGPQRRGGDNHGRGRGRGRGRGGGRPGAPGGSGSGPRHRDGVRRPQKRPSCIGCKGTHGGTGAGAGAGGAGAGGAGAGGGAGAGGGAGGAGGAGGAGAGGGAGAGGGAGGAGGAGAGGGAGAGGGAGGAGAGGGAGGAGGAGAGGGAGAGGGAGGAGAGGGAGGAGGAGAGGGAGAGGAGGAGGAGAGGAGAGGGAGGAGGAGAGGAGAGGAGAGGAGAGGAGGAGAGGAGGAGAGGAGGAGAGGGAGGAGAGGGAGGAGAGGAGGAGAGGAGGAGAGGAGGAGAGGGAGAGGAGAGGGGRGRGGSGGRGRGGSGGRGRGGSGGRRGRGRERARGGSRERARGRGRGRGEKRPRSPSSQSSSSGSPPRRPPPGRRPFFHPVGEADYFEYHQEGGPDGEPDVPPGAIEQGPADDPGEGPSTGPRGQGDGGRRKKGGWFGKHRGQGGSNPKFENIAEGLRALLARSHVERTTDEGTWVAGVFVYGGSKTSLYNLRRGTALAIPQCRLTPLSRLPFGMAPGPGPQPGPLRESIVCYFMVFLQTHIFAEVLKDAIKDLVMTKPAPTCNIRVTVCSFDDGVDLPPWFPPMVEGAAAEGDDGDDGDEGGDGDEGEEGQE
Nature of the series: inhibition of EBV nuclear antigen 1 DNA binding – biochemical, fluorescence polarization, 1536-well, dose response (AID 2381).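 Note: fluorescence polarization of a Cy5 DNA probe bound by EBNA-1 protein.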 Also on record: species or system human gammaherpesvirus 4.

Series [4] has as its target Induced myeloid leukemia cell differentiation protein Mcl-1 (Homo sapiens, UniProt Q07820). Nature of the series: blockers of MCL1 binding to BIM peptide – biochemical, fluorescence polarization, BIM-BH3 peptide, 1536-well, dose response (AID 2217).
The target in a further series is Bcl-2-like protein 1 (Homo sapiens, UniProt Q07817). Kind of series: blockers of BCLXL peptide binding – biochemical, fluorescence polarization, 1536-well, selectivity assay for MCL1 inhibitor project, dose response (AID 2218).
Sequence of Bcl-2-like protein 1 (Q07817 whole entry): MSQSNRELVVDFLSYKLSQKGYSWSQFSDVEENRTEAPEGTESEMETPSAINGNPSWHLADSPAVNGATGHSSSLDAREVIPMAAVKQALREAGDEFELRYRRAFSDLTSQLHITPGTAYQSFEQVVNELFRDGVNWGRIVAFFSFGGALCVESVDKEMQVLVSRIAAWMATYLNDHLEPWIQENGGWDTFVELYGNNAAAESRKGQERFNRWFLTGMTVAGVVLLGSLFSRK
Series [5] can be described thus: viability loss in THP-1 monocytes – THP-1 cells, cytotoxicity control for Vif-APOBEC3G degradation inhibitor project, dose response (AID 1117359). It counts as functional. To be noted: THP-1.
The nature of series [6]: A Cell Based Secondary Assay To Explore Cytotoxicity of Compounds that Sensitize Mycobacterium Tuberculosis to Beta-Lactam Antibiotics. Format: functional.
Series [7] addresses T3, Zinc finger protein mex-5 (Caenorhabditis elegans, UniProt Q9XUB2).
T3 sequence (Q9XUB2 whole entry): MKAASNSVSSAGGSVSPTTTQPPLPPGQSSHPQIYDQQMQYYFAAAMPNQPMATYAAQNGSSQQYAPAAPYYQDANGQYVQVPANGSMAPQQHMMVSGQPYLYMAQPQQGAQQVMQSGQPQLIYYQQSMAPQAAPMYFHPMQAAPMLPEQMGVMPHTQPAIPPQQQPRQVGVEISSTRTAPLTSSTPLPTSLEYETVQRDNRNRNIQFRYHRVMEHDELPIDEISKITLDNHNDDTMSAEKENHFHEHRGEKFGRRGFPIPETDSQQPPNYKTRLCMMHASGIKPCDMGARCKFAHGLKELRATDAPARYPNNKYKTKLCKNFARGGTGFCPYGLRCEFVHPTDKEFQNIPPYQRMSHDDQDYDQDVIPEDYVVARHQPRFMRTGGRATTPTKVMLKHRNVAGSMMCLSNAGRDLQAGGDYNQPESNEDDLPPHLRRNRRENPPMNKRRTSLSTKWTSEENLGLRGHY
Nature of the series: potency of MEX-5 RNA-binding blockers – biochemical, C. elegans, fluorescence polarization, dose response (AID 1960).

Series [8] addresses Polyadenylate-binding protein 1 (Homo sapiens, UniProt P11940). Nature of the series: blockers of PABP interaction with poly(A) – biochemical, fluorescence polarization, […] (AID 2014).
The target in series [9] is Eukaryotic translation initiation factor 4H (Homo sapiens, UniProt Q15056). Nature of the series: eIF4H binding inhibition – biochemical, uHTS, fluorescence polarization, translation initiation inhibitor project, primary screen (AID 2012).
Series [10] deals with T4, RNA-binding protein pos-1 (Caenorhabditis elegans, UniProt G5EF15).
T4 sequence (G5EF15 whole entry): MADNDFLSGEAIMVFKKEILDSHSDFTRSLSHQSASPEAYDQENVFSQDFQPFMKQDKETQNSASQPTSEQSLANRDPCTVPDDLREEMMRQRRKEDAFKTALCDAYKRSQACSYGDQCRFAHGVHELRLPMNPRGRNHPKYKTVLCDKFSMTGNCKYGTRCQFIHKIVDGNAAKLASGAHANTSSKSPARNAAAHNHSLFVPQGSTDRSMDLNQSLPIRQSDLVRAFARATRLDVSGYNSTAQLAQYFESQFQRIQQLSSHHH
Kind of series: disruptors of C. elegans POS-1 RNA interaction – biochemical, fluorescence polarization, dose response (AID 1964).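 Note: purified POS-1 fused to maltose binding protein made in E. coli; potency of compounds blocking POS-1 binding to fluorescent RNA.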

The target in another series is T5, Protein RecA (Mycobacterium tuberculosis, UniProt P9WHJ3).
T5 sequence (P9WHJ3 whole entry): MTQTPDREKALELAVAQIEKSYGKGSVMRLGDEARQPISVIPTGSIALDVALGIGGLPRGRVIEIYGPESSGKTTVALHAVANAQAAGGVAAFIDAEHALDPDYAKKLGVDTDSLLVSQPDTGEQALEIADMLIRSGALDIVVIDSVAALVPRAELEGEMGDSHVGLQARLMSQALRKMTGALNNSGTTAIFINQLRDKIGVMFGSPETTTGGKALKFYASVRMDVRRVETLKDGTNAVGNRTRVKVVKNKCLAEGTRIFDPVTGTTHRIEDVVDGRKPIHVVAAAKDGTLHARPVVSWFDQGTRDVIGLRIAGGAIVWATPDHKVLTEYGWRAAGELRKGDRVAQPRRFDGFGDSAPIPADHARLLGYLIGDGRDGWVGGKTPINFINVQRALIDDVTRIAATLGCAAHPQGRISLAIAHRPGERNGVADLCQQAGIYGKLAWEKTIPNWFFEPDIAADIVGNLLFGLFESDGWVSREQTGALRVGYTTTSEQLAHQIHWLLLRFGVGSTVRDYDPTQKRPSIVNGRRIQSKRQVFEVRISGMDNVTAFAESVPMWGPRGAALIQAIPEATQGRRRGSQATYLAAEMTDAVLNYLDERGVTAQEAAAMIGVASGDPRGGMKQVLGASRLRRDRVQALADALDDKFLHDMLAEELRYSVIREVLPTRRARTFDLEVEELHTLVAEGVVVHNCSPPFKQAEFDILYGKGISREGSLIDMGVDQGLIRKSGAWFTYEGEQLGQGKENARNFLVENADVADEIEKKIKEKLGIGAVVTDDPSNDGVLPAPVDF
Nature of the series: Fluorescence Cell-Free Homogeneous Dose Retest to Identify Inhibitors of RecA-Intein Splicing Activity. [Related pubchem assays (depositor defined):AID2097, AID2223, AID489010, AID492950]. Format: functional.

Series [11] addresses T6, Replicative DNA helicase DnaB (Mycobacterium tuberculosis, UniProt P9WMR3).
T6 sequence (P9WMR3 whole entry): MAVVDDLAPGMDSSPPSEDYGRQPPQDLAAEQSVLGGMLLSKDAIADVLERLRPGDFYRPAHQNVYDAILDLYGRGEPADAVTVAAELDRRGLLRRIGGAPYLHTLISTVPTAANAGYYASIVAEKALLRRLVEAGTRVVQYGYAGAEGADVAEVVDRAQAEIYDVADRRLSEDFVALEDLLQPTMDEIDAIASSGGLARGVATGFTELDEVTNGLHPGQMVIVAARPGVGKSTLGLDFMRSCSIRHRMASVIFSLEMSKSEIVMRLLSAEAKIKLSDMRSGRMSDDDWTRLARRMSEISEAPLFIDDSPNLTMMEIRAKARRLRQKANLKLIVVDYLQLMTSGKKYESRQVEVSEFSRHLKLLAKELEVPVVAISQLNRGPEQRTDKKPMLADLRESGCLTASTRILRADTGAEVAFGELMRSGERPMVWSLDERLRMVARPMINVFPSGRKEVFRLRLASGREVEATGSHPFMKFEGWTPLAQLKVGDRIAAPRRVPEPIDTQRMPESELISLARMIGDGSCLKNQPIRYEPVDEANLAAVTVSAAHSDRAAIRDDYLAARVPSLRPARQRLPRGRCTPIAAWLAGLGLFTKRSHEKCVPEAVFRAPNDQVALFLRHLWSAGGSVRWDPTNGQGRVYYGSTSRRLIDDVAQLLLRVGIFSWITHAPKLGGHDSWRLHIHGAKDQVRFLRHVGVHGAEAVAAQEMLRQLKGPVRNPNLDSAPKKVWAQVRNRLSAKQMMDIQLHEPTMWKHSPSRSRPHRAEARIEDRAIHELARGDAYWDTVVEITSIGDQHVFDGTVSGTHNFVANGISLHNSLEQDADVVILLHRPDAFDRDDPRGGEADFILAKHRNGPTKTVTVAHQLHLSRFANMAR
Kind of series: DnaB intein splicing inhibitors, dose response, biochemical, cell-free fluorescence (AID 449749). Format: functional.

The nature of series [12]: viability loss of HPDE-C7K cells – cell-based, fluorescence, HTS, primary screen (AID 431). It counts as functional. The conditions noted are these: Homo sapiens.
A short description of series [13]: HPDE-C7 pancreatic duct cell viability loss – fluorescence, HTS (AID 430). The conditions noted are these: Homo sapiens. Format: functional, cell-based.
The next series relates to Vero. Nature of the series: viability of Vero cells under compound – cytotoxicity control for flavivirus capping enzyme inhibitors (AID 588742). Format: functional. To be noted: Chlorocebus sabaeus.
The next series has as its target Cytochrome P450 2C19 (Homo sapiens, UniProt P33261). Nature of the series: Cytochrome panel assay with activity outcomes. Panel member name: p450-cyp2c19 Compounds with AC50 equal or less than 10 uM are considered active. Format: functional.

Sequence of Induced myeloid leukemia cell differentiation protein Mcl-1 (Q07820 whole entry): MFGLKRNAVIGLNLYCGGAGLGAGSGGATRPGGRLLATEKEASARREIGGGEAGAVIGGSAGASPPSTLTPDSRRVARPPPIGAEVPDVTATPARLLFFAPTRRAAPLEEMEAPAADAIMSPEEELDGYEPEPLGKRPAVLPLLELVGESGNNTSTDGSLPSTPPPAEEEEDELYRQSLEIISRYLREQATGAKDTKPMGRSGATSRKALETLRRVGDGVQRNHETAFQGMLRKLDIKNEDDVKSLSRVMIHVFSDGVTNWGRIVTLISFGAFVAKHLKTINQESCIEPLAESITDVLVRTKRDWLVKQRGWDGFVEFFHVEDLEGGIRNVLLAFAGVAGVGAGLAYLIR
Sequence of Cytochrome P450 2C19 (P33261 whole entry): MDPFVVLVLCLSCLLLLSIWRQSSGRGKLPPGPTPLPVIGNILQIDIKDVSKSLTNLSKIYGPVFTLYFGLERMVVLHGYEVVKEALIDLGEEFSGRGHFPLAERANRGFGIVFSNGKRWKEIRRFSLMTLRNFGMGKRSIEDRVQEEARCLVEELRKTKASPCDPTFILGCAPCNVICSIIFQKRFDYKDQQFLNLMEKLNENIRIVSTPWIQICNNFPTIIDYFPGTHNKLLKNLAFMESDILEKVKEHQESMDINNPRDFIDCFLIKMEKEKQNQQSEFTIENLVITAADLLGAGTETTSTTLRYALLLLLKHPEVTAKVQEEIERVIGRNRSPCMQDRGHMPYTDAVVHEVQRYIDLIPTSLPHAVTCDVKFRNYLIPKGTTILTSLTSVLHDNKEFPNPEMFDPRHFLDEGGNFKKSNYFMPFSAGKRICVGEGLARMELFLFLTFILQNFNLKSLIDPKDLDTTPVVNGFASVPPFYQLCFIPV
Sequence of Polyadenylate-binding protein 1 (P11940 whole entry): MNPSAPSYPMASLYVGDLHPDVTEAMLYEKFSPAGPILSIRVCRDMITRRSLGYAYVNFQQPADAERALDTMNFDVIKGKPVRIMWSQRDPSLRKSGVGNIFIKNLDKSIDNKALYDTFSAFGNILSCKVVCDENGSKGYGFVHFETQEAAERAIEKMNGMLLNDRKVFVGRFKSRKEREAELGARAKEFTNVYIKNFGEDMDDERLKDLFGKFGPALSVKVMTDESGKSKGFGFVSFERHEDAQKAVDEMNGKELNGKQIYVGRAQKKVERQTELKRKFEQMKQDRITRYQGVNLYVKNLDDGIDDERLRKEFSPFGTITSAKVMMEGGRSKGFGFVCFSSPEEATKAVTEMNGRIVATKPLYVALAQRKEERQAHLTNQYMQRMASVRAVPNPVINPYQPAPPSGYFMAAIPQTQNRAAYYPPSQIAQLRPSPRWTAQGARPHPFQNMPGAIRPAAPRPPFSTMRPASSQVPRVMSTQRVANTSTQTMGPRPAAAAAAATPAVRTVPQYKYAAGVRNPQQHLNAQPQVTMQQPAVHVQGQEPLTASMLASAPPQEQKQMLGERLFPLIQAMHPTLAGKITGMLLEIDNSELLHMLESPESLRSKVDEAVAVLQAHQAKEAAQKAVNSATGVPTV

The EC50 is the concentration needed to bring the measured effect to its halfway point. `O=C(Nc1ccc(N2CCCC2)c(Cl)c1)c1ccco1`: the values for the EC50 (in the series with HT-1080; in series [1]) were > 50 µM (not active) and < 0.2 µM (active), respectively.
As usually defined, the IC50 is the concentration needed to halve the response being measured. For `O=C(Nc1cccc(NC(=O)c2cccs2)c1)c1ccc(Br)cc1`, the values for the IC50 in series [2] and in series [3] were > 111 µM (not active) and 6.65 µM (active), respectively.
For `COc1ccc(O)c(C(=O)CC(=O)c2ccccc2)c1`, the EC50 with HT-1080 is > 50 µM (not active); in series [1], 5.71 µM (active).
Regarding `CCC(=O)Nc1ccc(C(=O)Nc2ccc3c(c2)C(=O)N(CC2CCCO2)C3=O)cc1` (stereo unspecified), the IC50 was > 111 µM (not active) in series [2] and 6.54 µM (active) in [3].
In general, CC50 refers to the concentration that lowers cell viability or growth by half. Turning to `O=[N+]([O-])c1cc(CN2CCCC2)c2cccnc2c1O`, the IC50 was 2.7 µM (active) in [4] and > 109 µM (not active) at Bcl-2-like protein 1. The CC50 in series [5] is > 40 µM (active).
Take `COc1ccc(NC(=O)c2ccc(C(=O)Nc3ccc(OC)cc3OC)cc2)c(OC)c1`: the IC50 is listed as > 111 µM (not active) in series [2] and 19.2 µM (not active) in [3].
For `CCOc1ccc(-c2cnc3n2CCC3)cc1`, the CC50 in series [6] is > 40 µM (active).
As for `CCCSc1nnc(NC(=O)Nc2ccccc2)s1`, the EC50 in [7] and in [10] was > 300 µM (not active) each time. For the same molecule, the IC50 in [8] and in [9] was > 100 µM (inactive) in each case.
Usually AC50 stands for the concentration at which the activity in the assay is half-maximal. As to `CCCc1n[nH]c2c1C(c1ccc(Br)s1)C(C#N)=C(N)O2` (stereo unspecified), the half-maximal effective concentration (EC50) on Protein RecA is 7.21 µM (active); in series [12], 7 µM (active); in series [13] it was 5.48 µM (active). Also, the AC50 in series [11] is 8.54 µM (active). The CC50 in the series with Vero is 39.9 µM (active).
`Cc1ccc(/C(O)=C/C2=NCC(C)NC2=O)cc1` (stereo unspecified): the EC50 is > 50 µM (not active) in the series with HT-1080 and > 100 µM (not active) in series [1]. Further, the AC50 result at Cytochrome P450 2C19 was “inconclusive”.
